The first experiment deals with PDGFRβ kinase, purified cytoplasmic domain PDGFR-b protein (Homo sapiens (Human), UniProt P09619). The experiment in a line: PDGFRβ Kinase Assay. Type of experiment: biochemical. The note with it: 36 μM ATP, poly-Glu-Tyr (4:1) substrate, 60 minute incubation at 30° C., ELISA read at 492 nm. The protocol: Biochemical PDGFRβ kinase assays were performed in 96 well microtiter plates that were coated overnight with 75 μg of poly-Glu-Tyr (4:1) in 10 mM Phosphate Buffered Saline (PBS), pH 7.4. The coated plates were washed with 2 mLs per well PBS+0.05% Tween-20 (PBS-T), blocked by incubation with PBS containing 1% BSA, then washed with 2 mLs per well PBS-T prior to starting the reaction. Reactions were carried out in 100 μL reaction volumes containing 36 μM ATP in kinase buffer (50 mM Hepes buffer pH 7.4, 20 mM MgCl2, 0.1 mM MnCl2 and 0.2 mM Na3VO4). Test compounds were reconstituted in 100% DMSO and added to the reaction to give a final DMSO concentration of 5%. Reactions were initiated by the addition 20 ul per well of kinase buffer containing 200-300 ng purified cytoplasmic domain PDGFR-b protein (Millipore). Following a 60 minute incubation at 30° C., the reactions were washed 2 mLs per well PBS-T. 100 μl of a monoclonal anti-phosphotyrosine antibody-peroxidase conjugate diluted 1:10,000 in PBS-T was added to the wells for 30 minutes. Following a 2 mLs per well wash with PBS-Tween-20, 100 μl of O-Phenylenediamine Dihydrochloride in phosphate-citrate buffer, containing urea hydrogen peroxide, was added to the wells for 7-10 minutes as a colorimetric substrate for the peroxidase. The reaction was terminated by the addition of 100 μl of 2.5N H2SO4 to each well and read using a microplate ELISA reader set at 492 nm. IC50 values for compound inhibition were calculated directly from graphs of optical density (arbitrary units) versus compound concentration following subtraction of blank values. […]
Chain of PDGFRβ kinase, purified cytoplasmic domain PDGFR-b protein (P09619 554-1106): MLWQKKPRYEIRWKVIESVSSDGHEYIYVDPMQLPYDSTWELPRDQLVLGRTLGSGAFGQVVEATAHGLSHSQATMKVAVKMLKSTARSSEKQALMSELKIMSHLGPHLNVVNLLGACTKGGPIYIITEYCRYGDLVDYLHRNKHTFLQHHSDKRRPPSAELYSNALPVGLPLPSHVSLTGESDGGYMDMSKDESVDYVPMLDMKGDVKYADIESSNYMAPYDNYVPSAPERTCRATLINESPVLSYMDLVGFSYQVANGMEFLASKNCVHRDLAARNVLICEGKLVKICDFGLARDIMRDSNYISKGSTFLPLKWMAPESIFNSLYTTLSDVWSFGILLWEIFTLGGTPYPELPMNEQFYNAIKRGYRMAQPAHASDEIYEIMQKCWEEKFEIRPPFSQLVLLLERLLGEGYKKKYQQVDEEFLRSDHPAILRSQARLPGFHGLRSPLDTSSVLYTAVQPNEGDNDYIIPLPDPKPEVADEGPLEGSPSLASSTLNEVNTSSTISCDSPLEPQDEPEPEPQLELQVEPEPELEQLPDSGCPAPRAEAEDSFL
Chain of VEGFR2 (KDR) kinase, purified cytoplasmic domain KDR protein (P35968 786-1356): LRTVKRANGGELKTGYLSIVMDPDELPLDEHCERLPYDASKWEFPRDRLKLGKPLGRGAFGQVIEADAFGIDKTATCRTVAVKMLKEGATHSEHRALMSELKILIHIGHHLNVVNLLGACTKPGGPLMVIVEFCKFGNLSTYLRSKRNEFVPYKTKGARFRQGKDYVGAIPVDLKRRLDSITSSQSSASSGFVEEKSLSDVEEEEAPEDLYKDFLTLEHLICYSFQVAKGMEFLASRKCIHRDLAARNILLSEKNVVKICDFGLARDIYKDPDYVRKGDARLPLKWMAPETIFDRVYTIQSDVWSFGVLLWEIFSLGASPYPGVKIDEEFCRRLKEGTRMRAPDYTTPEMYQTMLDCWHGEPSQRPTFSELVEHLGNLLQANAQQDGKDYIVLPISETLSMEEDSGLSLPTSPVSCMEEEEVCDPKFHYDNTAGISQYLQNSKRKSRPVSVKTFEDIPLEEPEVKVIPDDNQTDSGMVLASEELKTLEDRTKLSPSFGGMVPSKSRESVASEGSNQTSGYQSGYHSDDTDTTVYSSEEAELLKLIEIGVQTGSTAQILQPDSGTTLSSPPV
For the compound `Cc1cc(C(=O)Nc2cccc(C(C)C)c2)cc(N2CCc3nc(N)ncc3C2)c1` [Example 150, 3-(2-amino-7,8-dihydropyrido[4,3-d]pyrimidin-6(5H)-yl)-N-(3-isopropylphenyl)-5-methylbenzamide], the half-inhibitory concentration (IC50) came out at 0.059 µM. Same read-out and setting: for `Cc1ccc(C(=O)Nc2cccc(C(C)C)c2)cc1N1CCc2nc(N)ncc2C1` [Example 149, 3-(2-amino-7,8-dihydropyrido[4,3-d]pyrimidin-6(5H)-yl)-N-(3-isopropylphenyl)-4-methylbenzamide] the value was 0.03 µM; for `Nc1ncc2c(n1)CCN(c1cccc(C(=O)Nc3ccc(F)c(C(F)(F)F)c3)c1)C2` [Example 176, 3-(2-amino-7,8-dihydropyrido[4,3-d]pyrimidin-6(5H)-yl)-N-[4-fluoro-3-(trifluoromethyl)phenyl]benzamide], 0.061 µM.

As to `Cc1cccc(NC(=O)c2cccc(N3CCc4nc(N)ncc4C3)c2)c1` [Example 3, 3-(2-amino-7,8-dihydropyrido[4,3-d]pyrimidin-6(5H)-yl)-N-(3-methylphenyl)benzamide], inhibition was half-maximal at 0.116 µM (IC50). The same measure, in the same setting: for `CC(C)(C)c1ccc(NC(=O)c2cccc(N3CCc4nc(N)ncc4C3)c2)cc1` [Example 4, 3-(2-amino-7,8-dihydropyrido[4,3-d]pyrimidin-6(5H)-yl)-N-(4-tert-butylphenyl)benzamide] the value was 0.109 µM; for `Cc1ccc(NC(=O)c2cccc(N3CCc4nc(N)ncc4C3)c2)cc1` [Example 6, 3-(2-amino-7,8-dihydropyrido[4,3-d]pyrimidin-6(5H)-yl)-N-(4-methylphenyl)benzamide], 0.09 µM; for `Cc1ccc(NC(=O)Nc2ccc(N3CCc4ccncc4C3)cc2)cc1` [Example 165, 1-[4-(3,4-dihydro-2,7-naphthyridin-2(1H)-yl)phenyl]-3-(4-methylphenyl)urea], more than 1 µM. Still for that read-out and setting: for `Cc1cccc(NC(=O)Nc2ccc(N3CCc4ccncc4C3)cc2)c1` [Example 163, 1-[4-(3,4-dihydro-2,7-naphthyridin-2(1H)-yl)phenyl]-3-(3-methylphenyl)urea] the value was 1.56 µM.

Consider `Cc1cccc(NC(=O)c2cccc(N3CCc4nc(N)ncc4C3)n2)c1` [Example 37, 6-(2-amino-7,8-dihydropyrido[4,3-d]pyrimidin-6(5H)-yl)-N-(3-methylphenyl)pyridine-2-carboxamide], for which the IC50 was more than 10 µM. Same read-out and setting: for `Nc1ncc2c(n1)CCN(c1cccc(C(=O)NC3CCCC3)c1)C2` [Example 19, 3-(2-amino-7,8-dihydropyrido[4,3-d]pyrimidin-6(5H)-yl)-N-cyclopentylbenzamide] the value was more than 10 µM; for `Cc1cccc(NC(=O)Nc2ccc(N3CCc4ccncc4C3)c(C)c2)c1` [Example 166, 1-[4-(3,4-dihydro-2,7-naphthyridin-2(1H)-yl)-3-methylphenyl]-3-(3-methylphenyl)urea], 0.036 µM. Same read-out and setting: for `CC(C)(C)C1CCC(NC(=O)c2cccc(N3CCc4nc(N)ncc4C3)c2)CC1` (centres unmarked) [Example 17, 3-(2-amino-7,8-dihydropyrido[4,3-d]pyrimidin-6(5H)-yl)-N-(4-tert-butylcyclohexyl)benzamide] the value was 0.246 µM; for `Cc1cccc(NC(=O)Nc2ccc(N3CCc4ccncc4C3)cc2C)c1` [Example 167, 1-[4-(3,4-dihydro-2,7-naphthyridin-2(1H)-yl)-2-methylphenyl]-3-(3-methylphenyl)urea], 1.05 µM; for `O=C(Nc1ccc(N2CCc3ccncc3C2)cc1)c1cccc(C(F)(F)F)c1` [Example 162, N-[4-(3,4-dihydro-2,7-naphthyridin-2(1H)-yl)phenyl]-3-(trifluoromethyl)benzamide], more than 10 µM.

As to `COC(=O)c1cncc2c1CCN(c1cccc(C(=O)Nc3cccc(C(C)C)c3)c1)C2` [Example 169, Methyl 7-(3-{[(3-isopropylphenyl)amino]carbonyl}phenyl)-5,6,7,8-tetrahydro-2,7-naphthyridine-4-carboxylate], the half-maximal inhibitory concentration (IC50) is 0.015 µM. On to `Nc1ncc2c(n1)CCN(c1cccc(C(=O)Nc3cccc(C(F)(F)F)c3)c1)C2` [Example 5, 3-(2-amino-7,8-dihydropyrido[4,3-d]pyrimidin-6(5H)-yl)-N-[3-(trifluoromethyl)phenyl]benzamide], for which the IC50 worked out at 0.047 µM. `CC(C)c1cccc(NC(=O)c2cccc(N3CCc4ccncc4C3)c2)c1` [Example 168, 3-(3,4-dihydro-2,7-naphthyridin-2(1H)-yl)-N-(3-isopropylphenyl)benzamide]: the midpoint of inhibition, the IC50, lay at 0.04 µM. Same read-out and setting: for `Cc1cc(C(=O)Nc2cccc(C(F)(F)F)c2)cc(N2CCc3nc(N)ncc3C2)c1` [Example 148, 3-(2-amino-7,8-dihydropyrido[4,3-d]pyrimidin-6(5H)-yl)-5-methyl-N-[3-(trifluoromethyl)phenyl]benzamide] the value was 0.273 µM; for `Nc1ncc2c(n1)CCN(c1cccc(C(=O)NCC3CCCCC3)c1)C2` [Example 18, 3-(2-amino-7,8-dihydropyrido[4,3-d]pyrimidin-6(5H)-yl)-N-(cyclohexylmethyl)benzamide], 0.602 µM. `CC(C)c1cccc(NC(=O)c2cccc(N3CCc4nc(N)ncc4C3)c2)c1` [Example 2, 3-(2-amino-7,8-dihydropyrido[4,3-d]pyrimidin-6(5H)-yl)-N-(3-isopropylphenyl)benzamide]: the half-inhibitory concentration (IC50) was found to be 0.054 µM. Turning to `CCCCNC(=O)c1cccc(N2CCc3nc(N)ncc3C2)c1` [Example 16, 3-(2-amino-7,8-dihydropyrido[4,3-d]pyrimidin-6(5H)-yl)-N-butylbenzamide], the half-inhibitory concentration (IC50) was more than 10 µM. With `O=C(Nc1ccccc1)Nc1ccc(N2CCc3ccncc3C2)cc1` [Example 164, 1-[4-(3,4-dihydro-2,7-naphthyridin-2(1H)-yl)phenyl]-3-phenylurea], the IC50 was more than 10 µM.

Another experiment concerns the target VEGFR2 (KDR) kinase, purified cytoplasmic domain KDR protein (Homo sapiens (Human), UniProt P35968). In words: VEGFR2 Kinase Assay. Type of experiment: biochemical. The note with it: 2.7 μM ATP, poly-Glu-Tyr (4:1) substrate, 15 minute incubation at 30° C., ELISA read at 492 nm. How it is done: Biochemical KDR kinase assays were performed in 96 well microliter plates that were coated overnight with 75 μg/well of poly-Glu-Tyr (4:1) in 10 mM Phosphate Buffered Saline (PBS), pH 7.4. The coated plates were washed with 2 mLs per well PBS+0.05% Tween-20 (PBS-T), blocked by incubation with PBS containing 1% BSA, then washed with 2 mLs per well PBS-T prior to starting the reaction. […] Reactions were initiated by the addition 20 ul per well of kinase buffer containing 200-300 ng purified cytoplasmic domain KDR protein (BPS Bioscience, San Diego, Calif.). Following a 15 minute incubation at 30° C., the reactions were washed 2 mLs per well PBS-T. 100 μl of a monoclonal anti-phosphotyrosine antibody-peroxidase conjugate diluted 1:10,000 in PBS-T was added to the wells for 30 minutes. Following a 2 mLs per well wash with PBS-Tween-20, 100 μl of O-Phenylenediamine Dihydrochloride in phosphate-citrate buffer, containing urea hydrogen peroxide, was added to the wells for 7-10 minutes as a colorimetric substrate for the peroxidase. […] IC50 values for compound inhibition were calculated directly from graphs of optical density (arbitrary units) versus compound concentration following subtraction of blank values.
Take `CSc1ncc2c(n1)CCN(c1cc(C)cc(C(=O)Nc3cccc(C(C)C)c3)c1)C2` [Example 142, N-(3-isopropylphenyl)-3-methyl-5-[2-(methylthio)-7,8-dihydropyrido[4,3-d]pyrimidin-6(5H)-yl]benzamide]: the concentration for half-maximal inhibition (IC50) is more than 1 µM. Consider “4-(2-Methylsulfanyl-5,7-dihydro-pyrrolo[3,4-d]pyrimidin-6-yl)-pyridine-2-carboxylic acid (3-trifluoromethyl-phenyl)-amide [Example 126]”, for which the half-maximal inhibitory concentration (IC50) was more than 10 µM. On the same count and under the same terms, for `Cc1ccc(NC(=O)Nc2ccc(N3CCc4ccncc4C3)cc2)cc1` [Example 165, 1-[4-(3,4-dihydro-2,7-naphthyridin-2(1H)-yl)phenyl]-3-(4-methylphenyl)urea] the value was more than 1 µM; for `CSc1ncc2c(n1)CCN(c1cc(C)cc(C(=O)Nc3cccc(C(F)(F)F)c3)c1)C2` [Example 140, 3-methyl-5-[2-(methylthio)-7,8-dihydropyrido[4,3-d]pyrimidin-6(5H)-yl]-N-[3-(trifluoromethyl)phenyl]benzamide], more than 1 µM.
